The source made the active and inactive calls. How the calls were made is not given here.

The subject of this assay is 697B cells, BCR-induced NF-kB luciferase reporter luminescence. The assay can be described thus: B-cell receptor NF-kB reporter inhibition – 697B cells, luciferase luminescence, dose response (AID 489023).

Usually IC50 stands for the concentration that inhibits the measured activity by half. Turning to `CC(C)C(=O)Nc1ccc(NC(=O)c2ccc3c(c2)OCO3)cc1`, the IC50 is 17.2 µM.
For `COc1cc(NC(=O)c2ccco2)c(OC)cc1NC(=O)c1cc(OC)c(OC)c(OC)c1` the value was 24.9 µM (inactive); for `CCCOc1ccc(NC(=O)C(=O)NCCCn2ccnc2)cc1`, 14.2 µM; for `Cc1nc2ccccn2c1C(=O)/C=C/c1cccc([N+](=O)[O-])c1`, 22.8 µM (inactive).
On to `COc1cccc(-c2noc(CCC(=O)NCCc3ccccc3)n2)c1`, for which the IC50 was 5.65 µM.
Take `O=C(Nc1nc2c(Br)cc(Br)cc2c(=O)s1)c1ccco1`: the IC50 was 1.8 µM.
For `COc1ccc(C(C(=O)NC2CCCCC2)N(C(=O)CCl)c2ccc(Cl)cc2)cc1` (configuration not stated) the value was 0.85 µM; for `CCn1c(=O)cc(SCC(=O)N2CCC3(CC2)OCCO3)c2ccccc21`, > 80 µM (inactive); for `CCOc1ccc(-c2cc(CCCC(=O)NCc3ccco3)no2)cc1`, 6.57 µM.
In the case of `O=C(CSCCO)Nc1ccc(C23CC4CC(CC(C4)C2)C3)cc1`, the IC50 is > 80 µM (inactive).
In the case of `CCOc1ccc(/C=C2\SC(=S)N(CCCC(=O)NCCCN3CCOCC3)C2=O)cc1` it was 0.43 µM; in that of `CCCCCC/C=C/c1ccc(OC)c([C@H]2[C@H]3C=CC[C@@H](C)[C@@H]3C(=O)N2Cc2ccccc2)c1`, > 80 µM (inactive).
For `O=C(O)CCn1c(O)c(C=C2N=c3ccccc3=N2)sc1=S` the value was 17 µM; for `COC(=O)[C@@]12OC[C@]34[C@H]([C@@H](O)[C@@H]1O)[C@@]1(C)C(=O)C(O[C@@H]5OC(CO)[C@@H](O)[C@@H](O)[C@@H]5O)=C[C@@H](C)[C@@H]1C[C@H]3OC(=O)[C@H](OC(=O)/C=C(\C)C(C)(C)OC(C)=O)[C@@H]24` (some centres not stated), 0.42 µM; for `CC1CC(C)CN(S(=O)(=O)c2ccc(C(=O)NCCCn3ccnc3)cc2)C1` (configuration not stated), 5.07 µM.
In the case of `Cc1cc(NC(=O)CCCN2C(=O)/C(=C/c3ccccc3Cl)SC2=S)no1` it was 8.86 µM; in that of `Nc1ccccc1SCC(=O)Nc1nc(-c2ccccc2)cs1`, > 80 µM (inactive); in that of `Cc1ccc(S(=O)(=O)CC2CSc3nc4ccccc4n32)cc1` (configuration not stated), > 80 µM (inactive).
For the compound `CCCC(=O)Nc1ccc(Sc2ccc([N+](=O)[O-])cc2)cc1`, the IC50 is 69.3 µM (inactive).
For `CC(C)N1C(=O)S/C(=C/c2ccc3c(c2)n(C)c(=O)n3C)C1=O` the value was > 80 µM (inactive).
In the case of `CCOc1cc2nc(-c3ccc(OC)c(OC)c3)nc(N3CCOCC3)c2cc1OC` it was 4.94 µM; in that of `Cc1ccc(/C=C2\SC(=S)N(CCCC(=O)Nc3cccnc3)C2=O)cc1`, 0.25 µM; in that of `O=c1cccc2c1c1cc[nH]c3ccc(=O)n2c31`, 2.1 µM.
For `CCN1CCN(C(=O)CSc2cc(=O)n(CC)c3ccccc23)CC1` the value was > 80 µM (inactive); for `CC(C)(C)C(=O)/C(=C/c1ccncc1)n1cncn1`, 3.13 µM.
Take `CCn1c(=O)c2cc(C(=O)NC(C)C)sc2c2ccccc21`: the IC50 is > 80 µM (inactive).
Consider `COc1ccc(-c2ccc(C(C)=O)cc2)cc1[C@H]1[C@H]2C=CC[C@@H](C)[C@@H]2C(=O)N1Cc1ccccc1`, for which the IC50 is > 80 µM (inactive).
Consider `COc1ccc(OCc2cccc(C(=O)NN)c2)cc1`, for which the IC50 was 2.43 µM.
In the case of `CC(=O)c1cn(CCOc2cc(C)ccc2C)c2ccccc12` it was > 80 µM (inactive); in that of `CCOc1ccc(-c2c[n+]3c(n2-c2ccccc2)CCCCC3)cc1`, > 80 µM (inactive).
In the case of `COc1cc(-c2cc(=O)c3c(O)c(OC)c(OC)c(OC)c3o2)cc(OC)c1OC` it was > 80 µM (inactive); in that of `O=c1c(C=NCCCO)c(-c2ccccc2)[nH]n1-c1nc2ccccc2s1`, 9.07 µM.
As for `COc1ccc(/C=N\NC(=O)c2sccc2C)cc1Cn1nc(C)cc1C`, the IC50 was 55.9 µM (inactive).
As to `C=CCOc1ccc(/C=C2\SC(=S)N(CCC(=O)O)C2=O)cc1`, the IC50 is 0.63 µM.
As for `COc1ccccc1/C=C1\SC(=S)N(CCC(=O)Nc2cccc(O)c2)C1=O`, the IC50 is > 80 µM (inactive).
For `O=C(NNC(=O)c1ccccc1O)c1ccc(Cl)c(S(=O)(=O)N2CCc3ccccc32)c1` the value was > 80 µM (inactive); for `C[C@H]1CCC/C=C/[C@@H]2C[C@H](O)C[C@H]2[C@H](O)/C=C/C(=O)O1`, > 80 µM (inactive).
In the case of `Cc1[nH]c2ccccc2c1C(=O)CN1C(=O)NC2(CC(C)CC(C)(C)C2)C1=O` (configuration not stated) it was 6.97 µM; in that of `CCN(CC)c1ccc2cc(NC(=O)CCC(=O)O)c(=O)oc2c1`, 1.23 µM.
For `CC(=C/c1ccco1)/C=N/NC(=O)CSc1nnc(SCc2ccc(C)cc2)s1` the value was > 80 µM (inactive).
Regarding `Cn1c(=O)n(C)c2cc(/C=C3/NC(=O)N(Cc4ccccc4)C3=O)ccc21`, the IC50 is > 80 µM (inactive).
For `CCOC(=O)C1CCN(c2ncnc3c2cnn3-c2ccc(OC)cc2)CC1` the value was > 80 µM (inactive); for `O=C(CCCN1C(=O)/C(=C/c2ccccc2Cl)SC1=S)Nc1ccccn1`, 3.97 µM.
In the case of `Cc1c(CC(=O)NCCCC(=O)O)c(=O)oc2cc3c(cc12)CCC(C)(C)O3` it was 6.82 µM.
In the case of `CCOc1ccc(-n2c(-c3ccccc3)c[n+]3c2CCCCC3)cc1` it was > 80 µM (inactive); in that of `Cc1nc([N+](=O)[O-])c(Sc2nc3ccc([N+](=O)[O-])cc3[nH]2)n1Cc1ccccc1`, 8.74 µM.
In the case of `CC(C)[C@H](N)c1nnc(SCC(=O)c2ccc(Cl)cc2)o1`, the IC50 was > 80 µM (inactive).
`COc1ccc(NC(=O)c2cc3c(Cl)nc4ccccc4c3s2)cc1OC`: the IC50 is 60.3 µM (inactive).
For `Cc1cc(OCC(=O)NC2CC2)c2c(C)c(C)c(=O)oc2c1` the value was > 80 µM (inactive).
For `O=C1CCC2S/C(=C/Nc3ccc(C(F)(F)F)cc3)C(=O)N12` (configuration not stated) the value was 0.93 µM; for `Cc1c(CCC(=O)NCCCn2ccnc2)c(=O)oc2c(C)c3oc4c(c3cc12)CCCC4`, 30.4 µM (inactive); for `C=CCOc1ccccc1CN(C(=O)CCl)c1ccc2c(c1)OCO2`, 0.72 µM.
Take `N=c1c(C(=O)NC2CCCC2)cc2c(=O)n3ccccc3nc2n1CCN1CCOCC1`: the IC50 was > 80 µM (inactive).
In the case of `COc1ccc(OC)c(S(=O)(=O)Nc2ccc(-c3ccc4nnc(C)n4n3)cc2)c1` it was > 80 µM (inactive).
Regarding `COc1ccc(-c2ccc(F)cc2)cc1[C@H]1[C@H]2C=CC[C@@H](C)[C@@H]2C(=O)N1Cc1ccccc1`, the IC50 is > 80 µM (inactive).
For `O=C(CCCN1C(=O)/C(=C/c2ccccc2Cl)SC1=S)NNC(=O)c1ccc(Cl)cc1Cl` the value was 3.1 µM; for `Cc1cc(N(C)C)ccc1N=Nc1ccc(N)cc1`, 61.1 µM (inactive).
For `N#Cc1ccccc1COc1ccc(/C=C/C(=O)O)cc1` the value was 14.9 µM; for `CSC1CCCCC1(O)CSc1nc2c(cc1C#N)CCCC2` (configuration not stated), > 80 µM (inactive); for `Cn1c(=O)cc(OCCCC(=O)NC2CCCC2)c2ccccc21`, 34.4 µM (inactive).
In the case of `OCCN1CCN(C(=S)c2ccc(-c3ccccc3)cc2)CC1`, the IC50 is 5.72 µM.
In the case of `O=C(Nc1nc(-c2ccccc2)cs1)c1ccccc1NS(=O)(=O)c1ccc(F)cc1` it was 21.7 µM (inactive); in that of `Cc1nn(-c2ccc(N3CCCCC3)nn2)c(C)c1CCC(=O)Nc1ccccc1F`, > 80 µM (inactive); in that of `Cc1c(CCC(=O)N2CCC[C@H]2C(=O)O)c(=O)oc2cc3oc4c(c3cc12)CCCC4`, > 80 µM (inactive).
In the case of `CC(C)OCCCNC(=O)c1c(N)n(/N=C/c2ccccn2)c2nc3ccccc3nc12` it was > 80 µM (inactive); in that of `CCOCCCNc1nc2c(C)cccn2c(=O)c1/C=C1\SC(=S)N(C(C)CC)C1=O` (configuration not stated), 36.3 µM (inactive); in that of `CC(C)(C)c1ccc(-c2noc(CCC(=O)NCc3ccco3)n2)cc1`, under 0.16 µM.
In the case of `Cc1ccoc1C(=O)Nc1ccc(CC(=O)O)cc1` it was 2.09 µM.
For `Cc1cc(OCC(=O)Nc2ccc(CCO)cc2)c2c(C)c(C)c(=O)oc2c1`, the IC50 is > 80 µM (inactive).
For `CC(=O)c1cccc(S(=O)(=O)Nc2cc(C(F)(F)F)ccc2N2CCOCC2)c1` the value was > 80 µM (inactive); for `C=CCOc1ccc(NC(=O)C(=O)NCCCn2ccnc2)cc1`, > 80 µM (inactive).
For `COc1cccc(Cn2nnc(C(=O)Nc3cc(Cl)ccc3OC)c2N)c1` the value was > 80 µM (inactive).
For `Cc1nc2cc(-c3ccc(Cl)cc3)nn2c(C)c1CCC(=O)NCc1ccco1` the value was > 80 µM (inactive); for `N=c1ccn(Cc2ccccc2Cl)cc1`, > 80 µM (inactive); for `COc1cc(/C=N/Nc2nc(Nc3ccccc3)nc(N3CCOCC3)n2)ccc1OC(=O)c1ccco1`, 5.16 µM.
For the compound `CCc1ccc2nc(Nc3nc(COC)cc(=O)[nH]3)nc(C)c2c1`, the IC50 was > 80 µM (inactive).
On to `CCc1ccc(/C=C2/SC(=S)N(CCC(=O)Nc3cccc(C(=O)O)c3)C2=O)cc1`, for which the IC50 was > 80 µM (inactive).
In the case of `O=C(O)CCSc1nc2ccccc2s1` it was 10.1 µM; in that of `COC(=O)c1c(-c2ccc(N(C)C)cc2)sc2ccc(OC)cc12`, > 80 µM (inactive); in that of `COc1ccc(-n2c(-c3ccc(Br)cc3)c[n+]3c2CCc2ccccc2-3)cc1`, > 80 µM (inactive).
In the case of `Cc1ccc(-c2nn3c(C)nnc3c3ccccc23)cc1S(=O)(=O)NC(C)(C)CO` it was 29.6 µM (inactive); in that of `Cc1cc(=O)[nH]c2c(C)cc(S(=O)(=O)N3CCCCC3)cc12`, > 80 µM (inactive); in that of `COc1ccc(-c2noc(CCCC(=O)Nc3ccc(C(N)=O)cc3)n2)cc1`, 8.71 µM.
For `CCOC(=O)N1CCN(CC(=O)Nc2ccc([N+](=O)[O-])cc2C(=O)Nc2ccccc2F)CC1` the value was 29.1 µM (inactive).
Turning to `Cc1cnc(NC(=O)Nc2ccc(Cl)cc2)s1`, the IC50 is > 80 µM (inactive).
In the case of `COc1cc(NC(=O)c2cc3c(C)nc4ccccc4c3o2)cc(OC)c1OC`, the IC50 is 14.1 µM.
In the case of `CCOC(=O)/C=C(\C)Sc1cc(=O)oc2ccccc12` it was 1.61 µM.

The values above are taken from PubChem BioAssay AID489023 (Sanford-Burnham Center for Chemical Genomics, 2010).
